Experimental data: US10988524B2, “Modified relaxin B chain peptides and their therapeutic use” (priority 2018, dated 2021)
Where “and” joins values, the source holds several entries; their conditions need not be identical. Equal values may be shown once. Non-standard residues stand in square brackets, D forms with d. Residues, ends and D or L forms follow the SMILES beside them. 1Nal = N[C@@H](Cc1cccc2ccccc12)C(=O)O; αMeL = CC(C)C[C@](C)(N)C(=O)O; αMeK = C[C@](N)(CCCCN)C(=O)O; αMeS = C[C@](N)(CO)C(=O)O; Nle = CCCC[C@H](N)C(=O)O; Aib = CC(C)(N)C(=O)O

Target: T1, RXFP1 (Homo sapiens, UniProt Q9HBX9)
T1 sequence (Q9HBX9 1-757): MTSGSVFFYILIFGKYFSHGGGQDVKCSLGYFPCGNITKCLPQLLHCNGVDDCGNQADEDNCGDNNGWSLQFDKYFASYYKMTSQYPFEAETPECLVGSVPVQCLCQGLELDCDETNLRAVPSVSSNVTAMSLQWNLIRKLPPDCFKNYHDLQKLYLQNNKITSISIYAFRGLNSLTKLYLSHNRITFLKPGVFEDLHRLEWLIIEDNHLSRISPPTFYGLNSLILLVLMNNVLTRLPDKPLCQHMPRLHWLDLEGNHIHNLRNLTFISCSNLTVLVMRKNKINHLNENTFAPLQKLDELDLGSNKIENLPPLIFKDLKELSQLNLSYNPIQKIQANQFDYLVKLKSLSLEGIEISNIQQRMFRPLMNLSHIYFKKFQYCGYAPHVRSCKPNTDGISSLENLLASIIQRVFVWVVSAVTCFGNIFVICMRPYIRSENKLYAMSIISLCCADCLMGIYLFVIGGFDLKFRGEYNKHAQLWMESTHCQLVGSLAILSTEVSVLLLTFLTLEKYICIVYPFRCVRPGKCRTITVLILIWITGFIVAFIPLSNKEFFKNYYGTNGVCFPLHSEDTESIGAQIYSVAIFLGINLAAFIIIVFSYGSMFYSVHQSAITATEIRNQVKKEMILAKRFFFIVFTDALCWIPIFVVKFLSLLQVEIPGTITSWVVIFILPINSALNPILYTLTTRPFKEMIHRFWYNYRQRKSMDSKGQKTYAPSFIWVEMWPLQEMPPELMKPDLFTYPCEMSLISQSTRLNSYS
Assay: OVCAR5 cAMP assay (RXFP1 agonist activity, HTRF)
Conditions: for Emax: OVCAR-5, read-out: cAMP assay in OVCAR 5 cells Emax, maximal intracellular cAMP relative to H2-relaxin in the same test occasion; for EC50: cAMP assay in OVCAR 5 cells EC50 (nM), OVCAR5 cells expressing endogenous RXFP1, cAMP by HTRF, 30 min at 37° C., 1 mM IBMX

Row | SMILES | Emax [%] | EC50
1 | CCCC[C@H](NC(=O)CNC(=O)[C@H](CCC(=O)O)NC(=O)C(C)(C)NC(=O)C(C)(C)NC(=O)[C@@H](NC(=O)[C@H](C)NC(=O)[C@H](C)NC(=O)[C@H](CCCNC(=N)N)NC(=O)[C@@H](NC(=O)[C@H](CCCCN)NC(=O)[C@H](CCC(=O)O)NC(=O)[C@H](CCCNC(=N)N)NC(=O)CNC(=O)[C@H](CCC(=O)O)NC(=O)[C@H](CC(C)C)NC(C)=O)C(C)C)[C@@H](C)CC)C(=O)N[C@@H](CO)C(=O)N[C@H](C(=O)N[C@@H](Cc1c[nH]c2ccccc12)C(=O)N[C@@H](CO)C(=O)NC(C)(C)C(=O)N[C@@H](CCCNC(=N)N)C(=O)N[C@@H](CCCCN)C(=O)N[C@@H](CCCCN)C(N)=O)[C@@H](C)O [compound 17] (Ac-LEGREKVRAAI[Aib][Aib]EG[Nle]STWS[Aib]RKK-NH2) | 90 | 
2 | CC[C@H](C)[C@H](NC(=O)[C@H](CCC(N)=O)NC(=O)[C@H](C)NC(=O)[C@H](CCCNC(=N)N)NC(=O)[C@@H](NC(=O)[C@H](CCCCN)NC(=O)[C@H](CCC(=O)O)NC(=O)[C@H](CCCNC(=N)N)NC(=O)CNC(=O)[C@H](CCC(=O)O)NC(=O)C(C)(C)NC(C)=O)C(C)C)C(=O)NC(C)(C)C(=O)NC(C)(C)C(=O)N[C@@H](CCC(=O)O)C(=O)NCC(=O)N[C@@H](CCSC)C(=O)N[C@@H](CO)C(=O)N[C@@H](CCCCN)C(=O)N[C@@H](Cc1c[nH]c2ccccc12)C(=O)N[C@@H](CO)C(=O)N[C@@H](CCCCN)C(=O)N[C@@H](CCCNC(=N)N)C(=O)N[C@@H](CCCCN)C(=O)N[C@@H](CCCCN)C(N)=O [compound 11] (Ac-[Aib]EGREKVRAQI[Aib][Aib]EGMSKWSKRKK-NH2) | 102 | 
3 | CC[C@H](C)[C@H](NC(=O)[C@H](CCC(N)=O)NC(=O)[C@H](C)NC(=O)[C@H](CCCNC(=N)N)NC(=O)[C@@H](NC(=O)[C@H](CCCCN)NC(=O)[C@H](CCC(=O)O)NC(=O)[C@H](CCCNC(=N)N)NC(=O)CNC(=O)[C@H](CCC(=O)O)NC(=O)[C@H](CC(C)C)NC(C)=O)C(C)C)C(=O)NC(C)(C)C(=O)NC(C)(C)C(=O)N[C@@H](CCC(=O)O)C(=O)NCC(=O)N[C@@H](CCSC)C(=O)N[C@@H](CO)C(=O)N[C@H](C(=O)N[C@@H](Cc1c[nH]c2ccccc12)C(=O)N[C@@H](CO)C(=O)NC(C)(C)C(=O)N[C@@H](CCCNC(=N)N)C(N)=O)[C@@H](C)O [compound 41] (Ac-LEGREKVRAQI[Aib][Aib]EGMSTWS[Aib]R-NH2) | 106 | 
4 | CC[C@H](C)[C@H](NC(=O)[C@H](CCC(N)=O)NC(=O)[C@H](C)NC(=O)[C@H](CCCNC(=N)N)NC(=O)[C@@H](NC(=O)[C@H](CCCCN)NC(=O)[C@H](CCC(=O)O)NC(=O)[C@H](CCCNC(=N)N)NC(=O)CNC(=O)[C@H](CCC(=O)O)NC(=O)[C@H](CC(C)C)NC(C)=O)C(C)C)C(=O)NC(C)(C)C(=O)NC(C)(C)C(=O)N[C@@H](CCC(=O)O)C(=O)NCC(=O)N[C@@H](CCSC)C(=O)N[C@@H](CO)C(=O)N[C@@](C)(CO)C(=O)N[C@@H](Cc1c[nH]c2ccccc12)C(=O)N[C@@H](CO)C(=O)N[C@@H](CCCCN)C(=O)N[C@@H](CCCNC(=N)N)C(N)=O [compound 39] (Ac-LEGREKVRAQI[Aib][Aib]EGMS[αMeS]WSKR-NH2) | 99 | 9.5 nM
5 | CC[C@H](C)[C@H](NC(=O)[C@H](CCC(N)=O)NC(=O)[C@H](C)NC(=O)[C@H](CCCNC(=N)N)NC(=O)[C@@H](NC(=O)[C@H](CCCCN)NC(=O)[C@H](CCC(=O)O)NC(=O)[C@H](CCCNC(=N)N)NC(=O)CNC(=O)[C@H](CCC(=O)O)NC(=O)[C@H](CC(C)C)NC(C)=O)C(C)C)C(=O)NC(C)(C)C(=O)N[C@H](C(=O)N[C@@H](CCC(=O)O)C(=O)NCC(=O)N[C@@H](CCSC)C(=O)N[C@@H](CO)C(=O)N[C@@H](CCCCN)C(=O)N[C@@H](Cc1cccc2ccccc12)C(=O)N[C@@H](CO)C(=O)N[C@@H](CCCCN)C(=O)N[C@@H](CCCNC(=N)N)C(=O)N[C@@H](CCCCN)C(=O)N[C@@H](CCCCN)C(N)=O)[C@@H](C)CC [compound 9] (Ac-LEGREKVRAQI[Aib]IEGMSK[1Nal]SKRKK-NH2) | 100 | 
6 | CCCC[C@H](NC(=O)CNC(=O)[C@H](CCC(=O)O)NC(=O)C(C)(C)NC(=O)C(C)(C)NC(=O)[C@@H](NC(=O)[C@H](CCC(N)=O)NC(=O)[C@H](C)NC(=O)[C@H](CCCNC(=N)N)NC(=O)[C@@H](NC(=O)[C@H](CCCCN)NC(=O)[C@H](CCC(=O)O)NC(=O)[C@H](CCCNC(=N)N)NC(=O)CNC(=O)[C@H](CCC(=O)O)NC(=O)[C@H](CC(C)C)NC(C)=O)C(C)C)[C@@H](C)CC)C(=O)N[C@@H](CO)C(=O)N[C@H](C(=O)N[C@@H](Cc1c[nH]c2ccccc12)C(=O)N[C@@H](CO)C(=O)NC(C)(C)C(=O)N[C@@H](CCCNC(=N)N)C(=O)N[C@@H](CCCCN)C(=O)N[C@@H](CCCCNC(C)=O)C(N)=O)[C@@H](C)O [compound 21] (Ac-LEGREKVRAQI[Aib][Aib]EG[Nle]STWS[Aib]RKK(Ac)-NH2) | 96 | 32.8 nM
7 | CC[C@H](C)[C@H](NC(=O)[C@H](CCC(N)=O)NC(=O)[C@H](C)NC(=O)[C@H](CCCNC(=N)N)NC(=O)[C@@H](NC(=O)[C@H](CCCCN)NC(=O)[C@H](CCC(=O)O)NC(=O)[C@H](CCCNC(=N)N)NC(=O)CNC(=O)[C@H](CCC(=O)O)NC(=O)[C@@H](N)CC(C)C)C(C)C)C(=O)NC(C)(C)C(=O)N[C@H](C(=O)N[C@@H](CCC(=O)O)C(=O)NCC(=O)N[C@@H](CCSC)C(=O)N[C@@H](CO)C(=O)N[C@@H](CCCCN)C(=O)N[C@@H](Cc1c[nH]c2ccccc12)C(=O)N[C@@H](CO)C(=O)N[C@@H](CCCCN)C(=O)N[C@@H](CCCNC(=N)N)C(=O)N[C@@H](CCCCN)C(=O)N[C@@H](CCCCN)C(N)=O)[C@@H](C)CC [compound 6] (H-LEGREKVRAQI[Aib]IEGMSKWSKRKK-NH2) | 97 | 
8 | CC[C@H](C)[C@H](NC(=O)[C@H](CCC(N)=O)NC(=O)[C@H](C)NC(=O)[C@H](CCCNC(=N)N)NC(=O)[C@@H](NC(=O)[C@H](CCCCN)NC(=O)[C@H](CCC(=O)O)NC(=O)[C@H](CCCNC(=N)N)NC(=O)CNC(=O)[C@H](CCC(=O)O)NC(=O)C(C)(C)N)C(C)C)C(=O)NC(C)(C)C(=O)NC(C)(C)C(=O)N[C@@H](CCC(=O)O)C(=O)NCC(=O)N[C@@H](CCSC)C(=O)N[C@@H](CO)C(=O)N[C@@H](CCCCN)C(=O)N[C@@H](Cc1c[nH]c2ccccc12)C(=O)N[C@@H](CO)C(=O)N[C@@H](CCCCN)C(=O)N[C@@H](CCCNC(=N)N)C(=O)N[C@@H](CCCCN)C(=O)N[C@@H](CCCCN)C(N)=O [compound 12] (H-[Aib]EGREKVRAQI[Aib][Aib]EGMSKWSKRKK-NH2) | 99 | 
9 | CCCC[C@H](NC(=O)CNC(=O)[C@H](CCC(=O)O)NC(=O)C(C)(C)NC(=O)C(C)(C)NC(=O)[C@@H](NC(=O)[C@H](CCCCNC(C)=O)NC(=O)[C@H](C)NC(=O)[C@H](CCCNC(=N)N)NC(=O)[C@@H](NC(=O)[C@H](CCCCN)NC(=O)[C@H](CCC(=O)O)NC(=O)[C@H](CCCNC(=N)N)NC(=O)CNC(=O)[C@H](CCC(=O)O)NC(=O)[C@](C)(CC(C)C)NC(C)=O)C(C)C)[C@@H](C)CC)C(=O)N[C@@H](CO)C(=O)N[C@H](C(=O)N[C@@H](Cc1c[nH]c2ccccc12)C(=O)N[C@@H](CO)C(=O)NC(C)(C)C(=O)N[C@@H](CCCNC(=N)N)C(=O)N[C@@H](CCCCN)C(=O)N[C@@H](CCCCNC(C)=O)C(N)=O)[C@@H](C)O [compound 56] (Ac-[αMeL]EGREKVRAK(Ac)I[Aib][Aib]EG[Nle]STWS[Aib]RKK(Ac)-NH2) | 95 | 
10 | CCCC[C@H](NC(=O)CNC(=O)[C@H](CCC(=O)O)NC(=O)C(C)(C)NC(=O)C(C)(C)NC(=O)[C@@H](NC(=O)[C@H](CCC(N)=O)NC(=O)[C@H](C)NC(=O)[C@H](CCCNC(=N)N)NC(=O)[C@@H](NC(=O)[C@H](CCCCN)NC(=O)[C@H](CCC(=O)O)NC(=O)[C@H](CCCNC(=N)N)NC(=O)CNC(=O)[C@H](CCC(=O)O)NC(=O)[C@H](CC(C)C)NC(C)=O)C(C)C)[C@@H](C)CC)C(=O)N[C@@H](CO)C(=O)N[C@H](C(=O)N[C@@H](Cc1c[nH]c2ccccc12)C(=O)N[C@@H](CO)C(=O)N[C@@H](CCCCN)C(=O)N[C@@H](CCCNC(=N)N)C(=O)N[C@@H](CCCCN)C(=O)N[C@@H](CCCCN)C(N)=O)[C@@H](C)O [compound 13] (Ac-LEGREKVRAQI[Aib][Aib]EG[Nle]STWSKRKK-NH2) | 97 | 
11 | CCCC[C@H](NC(=O)CNC(=O)[C@H](CCC(=O)O)NC(=O)C(C)(C)NC(=O)C(C)(C)NC(=O)[C@@H](NC(=O)C(C)(C)NC(=O)[C@H](C)NC(=O)[C@H](CCCNC(=N)N)NC(=O)[C@@H](NC(=O)[C@H](CCCCN)NC(=O)[C@H](CCC(=O)O)NC(=O)[C@H](CCCNC(=N)N)NC(=O)CNC(=O)[C@H](CCC(=O)O)NC(=O)[C@H](CC(C)C)NC(C)=O)C(C)C)[C@@H](C)CC)C(=O)N[C@@H](CO)C(=O)N[C@H](C(=O)N[C@@H](Cc1c[nH]c2ccccc12)C(=O)N[C@@H](CO)C(=O)N[C@@](C)(CCCCN)C(=O)N[C@@H](CCCNC(=N)N)C(=O)N[C@@H](CCCCN)C(=O)N[C@@H](CCCCN)C(N)=O)[C@@H](C)O [compound 20] (Ac-LEGREKVRA[Aib]I[Aib][Aib]EG[Nle]STWS[αMeK]RKK-NH2) | 97 | ≤ 10 nM and ≤ 5 nM and 1.8 nM
